Patent US20250049777A1, “PHARMACEUTICALLY ACCEPTABLE SALT AND CRYSTALLINE FORM OF GLP-1 RECEPTOR AGONIST AND PREPARATION METHOD THEREFOR” (JIANGSU HENGRUI PHARMACEUTICALS CO., LTD., priority 2021, published 2025)
Counter-ions that a name gives are not always drawn. Like-named read-outs stand apart in the source and are kept apart here.

How the values were obtained:
[1] = Hygroscopicity of crystal forms of salts (DVS, 25° C.); type: physicochemical
Text: According to the description of hygroscopic characteristics and the definition of hygroscopic weight gain in “9103 Guidelines for Hygroscopicity of Pharmaceuticals”, Chinese Pharmacopoeia, Volume IV, 2015 edition, the following are defined: • deliquescent: absorbing enough water to form a liquid; • extremely hygroscopic: having a hygroscopic weight gain of not less than 15%; • hygroscopic: having a hygroscopic weight gain of less than 15% and not less than 2%; • slightly hygroscopic: having a hygroscopic weight gain of less than 2% and not less than 0.2%; and • no or almost no hygroscopicity: having a hygroscopic weight gain of less than 0.2%.
Surface Measurement Systems intrinsic DVS was used at 25° C. The observed humidity ranged from 0% to 95%. The step was 10%. The criterion was that the mass change dM/dT for each step was less than 0.002%. TMAX was 360 min. Two cycles were carried out.

[2] = type: physicochemical; conditions: for Crystal form: sealed aluminum foil bag
Protocol: A salt-type sample was sealed with an aluminum foil bag and placed under the conditions of 25° C./60% RH and 40° C./75% RH, respectively, to investigate the stability.

[3] = Stability of crystal forms of salts under influencing factors (illumination, high temperature, high humidity); type: physicochemical
Text: The sampling and investigation period was 30 days.

[4] = Illumination (4500 Lux), 5 days, open
[5] = Illumination (4500 Lux), 10 days, open
[6] = Illumination (4500 Lux), 30 days, open

O=C(O)c1ccc2nc(CN3CCC(c4cccc5c4O[C@@H](c4ccc(Cl)cc4F)CO5)CC3)n(C[C@@H]3CCO3)c2c1 [Crystal form I of tartrate salt, 2-((4-((S)-3-(4-chloro-2-fluorophenyl)-2,3-dihydrobenzo[b][1,4]dioxan-5-yl)piperidin-1-yl)methyl)-1-(((S)-oxetan-2-yl)methyl)-1H-benzo[d]imidazole-6-carboxylic acid]
hygroscopic weight gain 0.0% RH to 80.0% RH [1]: 1.44%
Crystal form after DVS ([1]; 0% to 95% RH): Unchanged
physical and chemical stability [2]: good physical and chemical stability
Crystal form ([2]; 25° C./60% RH): Unchanged
Crystal form ([2]; 40° C./75% RH): Unchanged
% Purity ([2]; Initial condition): 98.8%
% Purity ([3]; 40° C., 5 days, open): 98.4%
Crystal form ([3]; 40° C., 5 days, open): Unchanged
% Purity ([3]; 40° C., 10 days, open): 98.1%
Crystal form ([3]; 40° C., 10 days, open): Unchanged
% Purity ([3]; 40° C., 30 days, open): 97.6%
Crystal form ([3]; 40° C., 30 days, open): Unchanged
% Purity ([3]; 60° C., 5 days, open): 97.9%
Crystal form ([3]; 60° C., 5 days, open): Unchanged
% Purity ([3]; 60° C., 10 days, open): 97.2%
Crystal form ([3]; 60° C., 10 days, open): Unchanged
% Purity ([3]; 60° C., 30 days, open): 96.4%
Crystal form ([3]; 60° C., 30 days, open): Unchanged
% Purity ([3]; 75% RH, 5 days, open): 98.6%
Crystal form ([3]; 75% RH, 5 days, open): Unchanged
% Purity ([3]; 75% RH, 10 days, open): 98.6%
Crystal form ([3]; 75% RH, 10 days, open): Unchanged
% Purity ([3]; 75% RH, 30 days, open): 98.4%
Crystal form ([3]; 75% RH, 30 days, open): Unchanged
% Purity ([3]; 92.5% RH, 5 days, open): 98.7%
Crystal form ([3]; 92.5% RH, 5 days, open): Unchanged
% Purity ([3]; 92.5% RH, 10 days, open): 98.6%
Crystal form ([3]; 92.5% RH, 10 days, open): Unchanged
% Purity ([3]; 92.5% RH, 30 days, open): 98.3%
Crystal form ([3]; 92.5% RH, 30 days, open): Unchanged
% Purity [3, 4]: 98.7%
Crystal form [3, 4]: Unchanged
% Purity [3, 5]: 98.6%
Crystal form [3, 5]: Unchanged
% Purity [3, 6]: 98.3%
Crystal form [3, 6]: Unchanged
% Purity ([3]; Initial condition, 0 days): 98.8%
